Measurements taken from US8207178B2 (priority 2007, dated 2012).

Legend:
HIV-1 K103N-L100I mutant = assay: microbe, parasite or virus in culture; type: cell-based, human immunodeficiency virus type 1 (HIV-1); details: Human immunodeficiency virus 1, HeLa, read-out: EC50 mutant K103N-L100I, mutant K103N-L100I
wild type HIV-1 = assay: microbe, parasite or virus in culture; type: cell-based, human immunodeficiency virus type 1 (HIV-1); details: Human immunodeficiency virus 1, Hela-JC53

Work on Cc1cc(-c2ccc[nH]2)cc(C)c1Oc1nc(Nc2ccc(C#N)cc2)nc2ccn(C)c12 [Example 27, 4-(4-(2,6-Dimethyl-4-(1H pyrrol-2-yl)phenoxy)-5-methyl-5H-pyrrolo[3,2-d]pyrimidin-2-ylamino) benzonitrile] yielded an EC50 (HIV-1 K103N-L100I mutant) greater than 10 nM and an EC50 (wild type HIV-1) of less than 1 nM.
Work on Cc1cc(-c2cnc(C#N)nc2)cc(C)c1Oc1nc(Nc2ccc(C#N)cc2)nc2ccn(C)c12 [Example 30, 5-(4-(2-(4-Cyanophenylamino)-5-methyl-5H-pyrrolo[3,2-d]pyrimidin-4-yloxy)-3,5-dimethylphenyl)pyrimidine-2-carbonitrile] yielded an EC50 (HIV-1 K103N-L100I mutant) of less than 1 nM and an EC50 (wild type HIV-1) of less than 1 nM.
Cc1cc(-c2ccncc2C#N)cc(C)c1Oc1nc(Nc2ccc(C#N)cc2)nc2c(Cl)cn(C)c12 [Example 31, 4-(4-(7-Chloro-2-(4-cyanophenylamino)-5-methyl-5H-pyrrolo[3,2-d]pyrimidin-4-yloxy)-3,5-dimethyl-phenyl)nicotinonitrile] gave an EC50 (HIV-1 K103N-L100I mutant) of less than 1 nM and an EC50 (wild type HIV-1) of less than 1 nM.
With Cc1cc(-c2cn[nH]c2)cc(C)c1Oc1nc(Nc2ccc(C#N)cc2)nc2c(Cl)cn(C)c12 [Example 32, 4-(7-Chloro-4-(2,6-dimethyl-4-(1H-pyrazol-4-yl)phenoxy)-5-methyl-5H-pyrrolo[3,2-d]pyrimidin-2-ylamino)benzonitrile] the EC50 (HIV-1 K103N-L100I mutant) was greater than 10 nM and the EC50 (wild type HIV-1) was 1 to 10 nM.
For Cc1cc(-c2cccc(N(C)C)c2)cc(C)c1Oc1nc(Nc2ccc(C#N)cc2)nc2ccn(C)c12 [Example 33, 4-(4-(3′-(Dimethylamino)-3,5-dimethylbiphenyl-4-yloxy)-5-methyl-5H-pyrrolo [3,2-d]pyrimidin-2-ylamino) benzonitrile], the EC50 (HIV-1 K103N-L100I mutant) was greater than 10 nM and the EC50 (wild type HIV-1) was greater than 10 nM.
Cc1cc(-c2ccsc2C#N)cc(C)c1Oc1nc(Nc2ccc(C#N)cc2)nc2ccn(C)c12 [Example 34, 3-(4-(2-(4-Cyanophenylamino)-5-methyl-5H-pyrrolo [3,2-d]pyrimidin-4-yloxy)-3,5-dimethylphenyl) thiophene-2-carbonitrile] gave an EC50 (HIV-1 K103N-L100I mutant) of 1 to 10 nM and an EC50 (wild type HIV-1) of 1 to 10 nM.
For Cc1cc(-c2c(C)noc2C)cc(C)c1Oc1nc(Nc2ccc(C#N)cc2)nc2ccn(C)c12 [Example 35, 4-(4-(4-(3,5-Dimethylisoxazol-4-yl)-2,6-dimethylphenoxy)-5-methyl-5H-pyrrolo[3,2-d]pyrimidin-2-ylamino) benzonitrile], the EC50 (HIV-1 K103N-L100I mutant) was 1 to 10 nM and the EC50 (wild type HIV-1) was 1 to 10 nM.
Cc1cc(-c2cccc(C(=O)N(C)C)c2)cc(C)c1Oc1nc(Nc2ccc(C#N)cc2)nc2ccn(C)c12 [Example 36, 4′-(2-(4-Cyanophenylamino)-5-methyl-5H-pyrrolo[3,2-d]pyrimidin-4-yloxy)-N,N,3′,5′-tetramethylbiphenyl-3-carboxamide] was tested, and the EC50 (HIV-1 K103N-L100I mutant) was greater than 10 nM and the EC50 (wild type HIV-1) was 1 to 10 nM.
Cc1cc(-c2ccnc3ccccc23)cc(C)c1Oc1nc(Nc2ccc(C#N)cc2)nc2ccn(C)c12 [Example 37] was tested, and the EC50 (HIV-1 K103N-L100I mutant) was greater than 10 nM and the EC50 (wild type HIV-1) was 1 to 10 nM.
With Cc1cc(-c2cccc3ncccc23)cc(C)c1Oc1nc(Nc2ccc(C#N)cc2)nc2ccn(C)c12 [Example 38, 4-(4-(2,6-Dimethyl-4-(quinolin-5-yl)phenoxy)-5-methyl-5H-pyrrolo[3,2-d]pyrimidin-2-ylamino) benzonitrile] the EC50 (HIV-1 K103N-L100I mutant) was 1 to 10 nM and the EC50 (wild type HIV-1) was 1 to 10 nM.
Cc1cc(-c2cccc3cnccc23)cc(C)c1Oc1nc(Nc2ccc(C#N)cc2)nc2ccn(C)c12 [Example 39, 4-(4-(4-(Isoquinolin-5-yl)-2,6-dimethylphenoxy)-5-methyl-5H-pyrrolo[3,2-d]pyrimidin-2-ylamino) benzonitrile] was tested, and the EC50 (HIV-1 K103N-L100I mutant) was greater than 10 nM and the EC50 (wild type HIV-1) was greater than 10 nM.
Molecule Cc1cc(-c2cncc3ccccc23)cc(C)c1Oc1nc(Nc2ccc(C#N)cc2)nc2ccn(C)c12 [Example 40, 4-(4-(4-(Isoquinolin-4-yl)-2,6-dimethylphenoxy)-5-methyl-5H-pyrrolo[3,2-d]pyrimidin-2-ylamino) benzonitrile] has an EC50 (HIV-1 K103N-L100I mutant) greater than 10 nM and an EC50 (wild type HIV-1) of 1 to 10 nM.
Cc1cc(-c2cnc3ccccc3c2)cc(C)c1Oc1nc(Nc2ccc(C#N)cc2)nc2ccn(C)c12 [Example 41, 4-(4-(2,6-Dimethyl-4-(quinolin-3-yl)phenoxy)-5-methyl-5H-pyrrolo[3,2-d]pyrimidin-2-ylamino) benzonitrile] showed an EC50 (HIV-1 K103N-L100I mutant) greater than 10 nM and an EC50 (wild type HIV-1) of 1 to 10 nM.
Molecule Cc1cc(-c2ccc(S(=O)(=O)N(C)C)cc2)cc(C)c1Oc1nc(Nc2ccc(C#N)cc2)nc2ccn(C)c12 [Example 42, 4′-(2-(4-Cyanophenylamino)-5-methyl-5H-pyrrolo[3,2-d]pyrimidin-4-yloxy)-N,N,3′,5′-tetramethylbiphenyl-4-sulfonamide] has an EC50 (HIV-1 K103N-L100I mutant) greater than 10 nM and an EC50 (wild type HIV-1) of 1 to 10 nM.
Cc1cc(-c2cccc3cccnc23)cc(C)c1Oc1nc(Nc2ccc(C#N)cc2)nc2ccn(C)c12 [Example 43, 4-(4-(2,6-Dimethyl-4-(quinolin-8-yl)phenoxy)-5-methyl-5H-pyrrolo[3,2-d]pyrimidin-2-ylamino) benzonitrile] gave an EC50 (HIV-1 K103N-L100I mutant) greater than 10 nM and an EC50 (wild type HIV-1) of 1 to 10 nM.
Molecule Cc1cc(-c2ccc(C#N)cc2)cc(C)c1Oc1nc(Nc2ccc(C#N)cc2)nc2ccn(C)c12 [Example 44, 4′-(2-(4-Cyanophenylamino)-5-methyl-5H-pyrrolo[3,2-d]pyrimidin-4-yloxy)-3′,5′-dimethylbiphenyl-4-carbonitrile] has an EC50 (HIV-1 K103N-L100I mutant) of 1 to 10 nM and an EC50 (wild type HIV-1) of 1 to 10 nM.
Cc1cc(-c2ccnn2C)cc(C)c1Oc1nc(Nc2ccc(C#N)cc2)nc2nc[nH]c12 [Example 47, 4-(6-(2,6-Dimethyl-4-(1-methyl-1H-pyrazol-5-yl)phenoxy)-7H-purin-2-ylamino)benzonitrile] showed an EC50 (HIV-1 K103N-L100I mutant) greater than 10 nM and an EC50 (wild type HIV-1) of 1 to 10 nM.
Work on Cc1cc(-c2ccncn2)cc(C)c1Oc1nc(Nc2ccc(C#N)cc2)nc2ccn(C)c12 [Example 48, 4-(4-(2,6-Dimethyl-4-(pyrimidin-4-yl)phenoxy)-5-methyl-5H-pyrrolo [3,2-d]pyrimidin-2-ylamino)benzonitrile] yielded an EC50 (HIV-1 K103N-L100I mutant) of 1 to 10 nM and an EC50 (wild type HIV-1) of 1 to 10 nM.
Work on COc1ccc(Cn2cnc3nc(Nc4ccc(C#N)cc4)nc(Oc4c(C)cc(-c5ccc(C(N)=O)cc5)cc4C)c32)cc1 [Example 49, 4′-(2-(4-Cyanophenylamino)-7-(4-methoxybenzyl)-7H-purin-6-yloxy)-3′,5′-dimethylbiphenyl-4-carboxamide] yielded an EC50 (HIV-1 K103N-L100I mutant) greater than 10 nM and an EC50 (wild type HIV-1) of 1 to 10 nM.
With Cc1cc(-c2ccncc2)cc(C)c1Oc1nc(Nc2ccc(C#N)cc2)nc2c1cnn2C [Example 51, 4-(4-(2,6-Dimethyl-4-(pyridin-4-yl)phenoxy)-1-methyl-1H-pyrazolo[3,4-d]pyrimidin-6-ylamino) benzonitrile] the EC50 (HIV-1 K103N-L100I mutant) was greater than 10 nM and the EC50 (wild type HIV-1) was 1 to 10 nM.
For Cc1cc(-c2ccc(S(N)(=O)=O)cc2)cc(C)c1Oc1nc(Nc2ccc(C#N)cc2)nc2c1ncn2C [Example 52, 4′-(2-(4-Cyanophenylamino)-9-methyl-9H-purin-6-yloxy)-3′,5′-dimethylbiphenyl-4-sulfonamide], the EC50 (HIV-1 K103N-L100I mutant) was 1 to 10 nM and the EC50 (wild type HIV-1) was less than 1 nM.
With Cc1cc(-c2ccc(N)cc2)cc(C)c1Oc1nc(Nc2ccc(C#N)cc2)nc2ccn(C)c12 [Example 54, 4-(4-(4′-Amino-3,5-dimethylbiphenyl-4-yloxy)-5-methyl-5H-pyrrolo[3,2-d]pyrimidin-2-ylamino) benzonitrile] the EC50 (HIV-1 K103N-L100I mutant) was greater than 10 nM and the EC50 (wild type HIV-1) was less than 1 nM.
In the case of Cc1cc(-c2ccc(C(N)=O)cc2F)cc(C)c1Oc1nc(Nc2ccc(C#N)cc2)nc2ncn(C)c12 [Example 55, 4′-(2-(4-Cyanophenylamino)-7-methyl-7H-purin-6-yloxy)-2-fluoro-3′,5′-dimethylbiphenyl-4-carboxamide], the EC50 (HIV-1 K103N-L100I mutant) is reported as 1 to 10 nM and the EC50 (wild type HIV-1) is reported as 1 to 10 nM.
For Cc1cc(-c2ccc(C(N)=O)cc2F)cc(C)c1Oc1nc(Nc2ccc(C#N)cc2)nc2c1ncn2C [Example 56, 4′-(2-(4-Cyanophenylamino)-9-methyl-9H-purin-6-yloxy)-2-fluoro-3′,5′-dimethylbiphenyl-4-carboxamide], the EC50 (HIV-1 K103N-L100I mutant) was 1 to 10 nM and the EC50 (wild type HIV-1) was 1 to 10 nM.
Cc1cc(-c2ccnnc2)cc(C)c1Oc1nc(Nc2ccc(C#N)cc2)nc2ccn(C)c12 [Example 57, 4-(4-(2,6-dimethyl-4-(pyridazin-4-yl)phenoxy)-5-methyl-5H-pyrrolo[3,2-d]pyrimidin-2-ylamino) benzonitrile] showed an EC50 (HIV-1 K103N-L100I mutant) of 1 to 10 nM and an EC50 (wild type HIV-1) of less than 1 nM.
For Cc1cc(-c2ccnnc2)cc(C)c1Oc1nc(Nc2ccc(C#N)cc2)nc2ncn(C)c12 [Example 58, 4-(6-(2,6-Dimethyl-4-(pyridazin-4-yl)phenoxy)-7-methyl-7H-purin-2-ylamino)benzonitrile], the EC50 (HIV-1 K103N-L100I mutant) was 1 to 10 nM and the EC50 (wild type HIV-1) was 1 to 10 nM.
With Cc1cc(-c2ccnnc2)cc(C)c1Oc1nc(Nc2ccc(C#N)cc2)nc2c1ncn2C [Example 59, 4-(6-(2,6-Dimethyl-4-(pyridazin-4-yl)phenoxy)-9-methyl-9H-purin-2-ylamino)benzonitrile] the EC50 (HIV-1 K103N-L100I mutant) was greater than 10 nM and the EC50 (wild type HIV-1) was 1 to 10 nM.
Cc1cc(-c2ccc(C(N)=O)nc2)cc(C)c1Oc1nc(Nc2ccc(C#N)cc2)nc2ccn(C)c12 [Example 60, 5-(4-(2-(4-Cyanophenylamino)-5-methyl-5H-pyrrolo[3,2-d]pyrimidin-4-yloxy)-3,5-dimethyl-phenyl)picolinamide] was tested, and the EC50 (HIV-1 K103N-L100I mutant) was greater than 10 nM and the EC50 (wild type HIV-1) was 1 to 10 nM.
For Cc1cc(-c2ccc(F)cc2)cc(C)c1Oc1nc(Nc2ccc(C#N)cc2)nc2ccn(C)c12 [Example 62, 4-(4-(4′-fluoro-3,5-dimethylbiphenyl-4-yloxy)-5-methyl-5H-pyrrolo[3,2-d]pyrimidin-2-ylamino) benzonitrile], the EC50 (HIV-1 K103N-L100I mutant) was greater than 10 nM and the EC50 (wild type HIV-1) was 1 to 10 nM.
With Cc1cc(-c2ccc(F)c(C#N)c2)cc(C)c1Oc1nc(Nc2ccc(C#N)cc2)nc2ccn(C)c12 [Example 63, 4′-(2-(4-cyanophenylamino)-5-methyl-5H-pyrrolo[3,2-d]pyrimidin-4-yloxy)-4-fluoro-3′,5′-dimethylbiphenyl-3-carbonitrile] the EC50 (HIV-1 K103N-L100I mutant) was 1 to 10 nM and the EC50 (wild type HIV-1) was less than 1 nM.
Cc1cc(-c2cnccc2C#N)cc(C)c1Oc1nc(Nc2ccc(C#N)cc2)nc2ccn(C)c12 [Example 64, 3-(4-(2-(4-cyanophenylamino)-5-methyl-5H-pyrrolo[3,2-d]pyrimidin-4-yloxy)-3,5-dimethylphenyl) isonicotinonitrile] showed an EC50 (HIV-1 K103N-L100I mutant) of less than 1 nM and an EC50 (wild type HIV-1) of less than 1 nM.
